The source made the active and inactive calls. The calls are words filed in the database; no cut-off is given here.
Legend:
Calvarial osteoblast [1] = experiment: Induction of osteogenesis in mouse Osteoblast cells assessed as ALP activity at 0.001 to 100 uM measured for 24 to 48 hrs; assay type: functional; settings: dose 0.001-100 µM, time 24-48 hrs
Calvarial osteoblast [2] = experiment: Induction of osteogenesis in mouse Osteoblast cells assessed as ALP activity at 1 to 1000 pM measured for 24 to 48 hrs; assay type: functional, cell-based; settings: dose 1-1000 pM, time 24-48 hrs
Calvarial osteoblast [3] = experiment: Induction of osteogenesis in mouse Osteoblast cells assessed as ALP activity at 10 nM measured for 24 to 48 hrs; assay type: functional, cell-based; settings: time 24-48 hrs
Calvarial osteoblast [4] = experiment: Cytotoxicity against mouse Osteoblast cells assessed as reduction in cell viability at 100 uM measured for 24 to 48 hrs by MTT assay; assay type: toxicity, cell-based; settings: time 24-48 hrs
Calvarial osteoblast [5] = experiment: Induction of osteogenesis in mouse Osteoblast cells assessed as ALP activity at 10 nM measured for 48 hrs; assay type: functional, cell-based
Calvarial osteoblast [6] = experiment: Induction of osteoblast differentiation in mouse calvarial osteoblasts cells assessed as ALP activity at 100 to 10000 pM measured for 7 days; assay type: functional, cell-based; settings: dose 100-10000 pM, time 7.0 day
Calvarial osteoblast [7] = experiment: Induction of osteogenesis in mouse Osteoblast cells assessed as ALP activity at 0.001 to 100 uM measured for 24 hrs; assay type: functional, cell-based; settings: dose 0.001-100 µM
Calvarial osteoblast [8] = experiment: Induction of osteogenesis in mouse Osteoblast cells assessed as ALP activity at 0.001 to 100 uM measured for 48 hrs; assay type: functional, cell-based; settings: dose 0.001-100 µM
Calvarial osteoblast [9] = experiment: Cytotoxicity against mouse Osteoblast cells assessed as reduction in cell viability at 0.000001 to 1 uM measured for 24 to 48 hrs by MTT assay; assay type: toxicity, cell-based; settings: dose lower 1e-06 µM, time lower 24 hrs, dose upper 1 µM, time upper 48 hrs
[10] = Induction of osteoblast mineralization in mouse Bone marrow cells assessed as increase in mineralized nodule formation at 10 nM replaced with media every 48 hrs for 21 days by Alizarin Red staining-based microscopic analysis; assay type: functional, Bone marrow cell; settings: time 21 day
[11] = Induction of osteoblast mineralization in mouse Bone marrow cells assessed as increase in mineralized nodule formation at 100 pM replaced with media every 48 hrs for 21 days by Alizarin Red staining-based microscopic analysis; assay type: functional, Bone marrow cell; settings: time 21 day
Calvarial osteoblast [12] = experiment: Induction of osteogenesis in mouse Osteoblast cells assessed as fold increase in RUNX2 gene expression at 100 to 10000 pM by qRT-PCR analysis; assay type: functional; settings: dose 100-10000 pM
Calvarial osteoblast [13] = experiment: Induction of osteogenesis in mouse Osteoblast cells assessed as ALP activity at 100 pM measured for 48 hrs; assay type: functional, cell-based
Calvarial osteoblast [14] = experiment: Induction of osteoblast differentiation in mouse calvarial osteoblasts cells assessed as ALP activity at 1 to 10000 pM measured for 7 days; assay type: functional, cell-based; settings: dose 1-10000 pM, time 7.0 day

CCn1c(-c2cc(C(C)C)c3c(c2)C(c2c(C)[nH]c4ccccc24)C(C#N)=C(N)O3)nc2ccccc2c1=O (stereo not drawn)
Activity (Calvarial osteoblast [1]): 6%

Cc1[nH]c2ccc(Cl)cc2c1C1C(C#N)=C(N)Oc2c1cc(-c1nc3ccccc3c(=O)[nH]1)cc2C(C)(C)C (stereo not drawn)
Activity (Calvarial osteoblast [1]): 2%

CCc1cc(-c2nc3ccccc3c(=O)[nH]2)cc2c1OC(N)=C(C#N)C2c1c(C)[nH]c2ccccc12 (stereo not drawn)
Activity (Calvarial osteoblast [1]): inactive

CCn1c(-c2cc(C)c3c(c2)CC(C#N)=C(N)O3)nc2ccccc2c1=O
Activity (Calvarial osteoblast [2]): inactive | Activity (Calvarial osteoblast [1]): inactive | Activity (Calvarial osteoblast [3]): inactive

CCCc1cc(-c2nc3ccccc3c(=O)n2C)cc2c1OC(N)=C(C#N)C2c1c(C)[nH]c2ccc(Cl)cc12 (stereo not drawn)
Activity (Calvarial osteoblast [1]): 12%

COc1ccc2[nH]c(C)c(C3C(C#N)=C(N)Oc4c3cc(-c3nc5ccccc5c(=O)n3C)cc4C(C)(C)C)c2c1 (stereo not drawn)
Activity (Calvarial osteoblast [4]): Toxic | Activity (Calvarial osteoblast [5]): Active | Activity (Calvarial osteoblast [6]): Active | Activity (Calvarial osteoblast [7]): inactive | Activity (Calvarial osteoblast [8]): Active | Activity (Calvarial osteoblast [9]): Non-Toxic | Activity [10]: 20% | Activity (Calvarial osteoblast [1]): 19% | Activity [11]: 10%

CCCc1cc(-c2nc3ccccc3c(=O)n2C)cc2c1OC(N)=C(C#N)C2c1c(C)[nH]c2ccc(OC)cc12 (stereo not drawn)
fold change (FC) (Calvarial osteoblast [12]): 3 | Activity (Calvarial osteoblast [1]): 11%

CCn1c(-c2cc3c(c(C(C)(C)C)c2)OC(N)=C(C#N)C3c2c(C)[nH]c3ccc(OC)cc23)nc2ccccc2c1=O (stereo not drawn)
Activity (Calvarial osteoblast [1]): 1%

Cc1[nH]c2ccccc2c1C1C(C#N)=C(N)Oc2c1cc(-c1nc3ccccc3c(=O)n1C)cc2C(C)(C)C (stereo not drawn)
Activity (Calvarial osteoblast [1]): inactive

CCCc1cc(-c2nc3ccccc3c(=O)n2CC)cc2c1OC(N)=C(C#N)C2c1c(C)[nH]c2ccccc12 (stereo not drawn)
Activity (Calvarial osteoblast [1]): 12%

COc1ccc2[nH]c(C)c(C3C(C#N)=C(N)Oc4c(C)cc(-c5nc6ccccc6c(=O)n5C)cc43)c2c1 (stereo not drawn)
Activity (Calvarial osteoblast [1]): 13%

CCc1cc(-c2nc3ccccc3c(=O)n2CC)cc2c1OC(N)=C(C#N)C2c1c(C)[nH]c2ccccc12 (stereo not drawn)
Activity (Calvarial osteoblast [4]): Toxic | Activity (Calvarial osteoblast [13]): Active | Activity (Calvarial osteoblast [14]): inactive | Activity (Calvarial osteoblast [7]): inactive | Activity (Calvarial osteoblast [8]): Active | Activity (Calvarial osteoblast [9]): Non-Toxic | Activity (Calvarial osteoblast [1]): 38%

COc1ccc2[nH]c(C)c(C3C(C#N)=C(N)Oc4c(C(C)C)cc(-c5nc6ccccc6c(=O)n5C)cc43)c2c1 (stereo not drawn)
Activity (Calvarial osteoblast [1]): inactive

CCn1c(-c2cc(C)c3c(c2)C(c2c(C)n(CC)c4ccccc24)C(C#N)=C(N)O3)nc2ccccc2c1=O (stereo not drawn)
Activity (Calvarial osteoblast [1]): inactive

Cc1cc(-c2nc3ccccc3c(=O)n2C)cc2c1OC(N)=C(C#N)C2c1c(C)[nH]c2ccccc12 (stereo not drawn)
Activity (Calvarial osteoblast [1]): inactive

Cc1[nH]c2ccccc2c1C1C(C#N)=C(N)Oc2c(C(C)C)cc(-c3nc4ccccc4c(=O)n3C)cc21 (stereo not drawn)
Activity (Calvarial osteoblast [1]): 1%
